Test results published in patent US20240189201A1, “HAIR SERUM AND SUPPLEMENT” (priority 2021, published 2024).

Assay: Comparison of hair serum compositions formulated with different crystalline CBDs (type A vs type B)
Conditions: hair serum according to Example 2, differing only in the crystalline CBD used
Protocol: Two hair serum compositions are prepared according to Example 2, the only difference being that the crystalline CBD used in the formulation is either of type A (needle-like crystals; FIG. 1) or type B (bunch/cluster-like; FIG. 2).
Type A crystalline CBD is sourced from Enecta, while type B CBD is sourced from Pharma Hemp.

C=C(C)[C@@H]1CCC(C)=C[C@H]1c1c(O)cc(CCCCC)cc1O [type A CBD, Cannabidiol]
Activity / potency of CBD in hair serum, type A versus type B: significantly more active than type B CBD
Activity / potency of CBD in hair serum, type A versus type B (listed as crystal structure A): significantly more potent than CBD with a different crystal structure
